The values that follow come from patent US5349127A, “Expression of herbicide metabolizing cytochromes P450” (priority 1992, dated 1994).

Data set [1] concerns S. griseolus ATCC 11796 induced with 10001. Briefly: Sulfonylurea metabolism by washed cell suspension (Examples 5-9). The data set is classed as in vitro ADME, Streptomyces griseolus. Conditions: substrate 10006. The procedure:
(§1) Herbicides and their metabolites are measured by HPLC as described by Romesser et al., BBRC 140: 650-659 (1986), herein incorporated by reference, except that 0.1% H3 PO4 is used in both solvents. Chromatographic identity and quantitation of the herbicides and their resulting metabolites is determined by comparing them chromatographically with authentic standard compounds. Identity of the resulting metabolites is also confirmed by UV spectroscopy.
(§2) A 100 ml culture of S. griseolus ATCC 11796 in sporulation broth and a 50 ml culture of S. lividans transformed with pCAO400 in YEME broth were prepared and incubated for 24 hours as described. At that time, the S. griseolus culture was split into two 50 ml aliquots into two separate flasks and 25 ml of fresh sporulation broth was added to each and 9 mg of […] was added to one of these cultures to induce cytochrome P450SU1 expression. Fresh YEME broth (25 ml) was added to the S. lividans culture. After an additional 6 hours growth at 30° C., the cells in each culture were harvested as described above, washed twice with MOPS (50 mM, pH 7.2) and recentrifuged. The cell pellets were resuspended in four cell volumes of MOPS (50 mM, pH 7.2) containing 0.2% glucose and about 100 μg/ml of 10004. These cell suspensions were incubated at 30° C. with shaking and aliqouts were taken at 2 and 5.5 hours. The supernatant of each aliquot was analyzed by HPLC and the concentrations of the sulfonylurea compound 10004 and its metabolite 10005 were determined.
(§3) S. lividans transformed respectively with pCAO200SU1-FeS-B#9, pCAO200SU#112and pCAO200 were cultured for 36 hours in 400 ml of YEME broth at 30° C. S. griseolus ATCC 11796 was similarly cultured in 400 ml of sporulation broth. Six hours before harvesting the cells, 150 ml of fresh YEME broth was added to the S. lividans cells, and the S. griseolus cells were split into two 200 ml cultures with 100 ml of fresh sporulation broth added to each. 10001 (36 mg) was added to one of the two S. griseolus cultures to induce cytochrome P450SU1. The cells were prepared as described above in Example 5 and the concentrations of the sulfonylurea compound 10006 and its metabolites 10007, 10008 or 10009 were determined.

The test system of data set [2] is S. griseolus ATCC 11796 uninduced. The data set is described as above. It counts as in vitro ADME, Streptomyces griseolus. As to conditions: substrate 10006. The procedure:
as §1, §2, §3

A short description of data set [3]: Incubation buffer without cells, time 0 (Examples 5-9, 11, 12). Conditions: no cells; substrate 10006; 0 h. It counts as in vitro ADME. The method, then:
as §2, §3
S. lividans transformed with pCAO200SU2-FeS-A#11 and S. lividans transformed with pCAO200 were cultured for 36 hours in 400 ml of YEME broth at 30° C. S. griseolus PH2001 (mutant without SU1) was cultured in 400 ml of sporulation broth at 30° C. Nine hours before harvesting the cells, the S. griseolus PH2001 culture was divided into two 200 ml cultures. Both received 100 ml of fresh sporulation broth and one received 36 mg of 10001 to induce cytochrome P450SU2. The cells were prepared as described above in Example 6 and the concentrations of the sulfonylurea compound 10001 and its metabolites 10002 and 10003 were determined.

Data set [4] has as its system S. lividans pCAO200SU1#12. As to the kind of experiment: Sulfonylurea metabolism by washed cell suspension (Examples 6-9). The data set is classed as in vitro ADME, Streptomyces lividans. Conditions: substrate 10006. The method, then: (§4) Herbicides and their metabolites are measured by HPLC as described by Romesser et al., BBRC 140: 650-659 (1986), herein incorporated by reference, except that 0.1% H3 PO4 is used in both solvents. Chromatographic identity and quantitation of the herbicides and their resulting metabolites is determined by comparing them chromatographically with authentic standard compounds. Identity of the resulting metabolites is also confirmed by UV spectroscopy. […]
as §3

Another data set deals with S. lividans pCAO200. Described as above. The data set is classed as in vitro ADME, Streptomyces lividans. Conditions: substrate 10006. The procedure: as §4, §3
The subject of data set [5] is S. lividans pCAO200SU1-FeS-B#9. The data set is described as above. Conditions: substrate 10006. It counts as in vitro ADME, Streptomyces lividans.
In the next data set the test system is S. griseolus ATCC11796. As to the kind of experiment: Percent conversion of non-sulfonylurea herbicides (Example 29). It counts as in vitro ADME, Streptomyces griseolus. Conditions: 3.0 mg herbicide in 25 ml broth; 18 hours. The method, then:
(§5) This experiment was performed as in Example 17 with the following changes. Separate cultures (50 ml) inoculated with S. lividans C37, S. lividans transformed with pCAO200SU1-FeS-B#9, or S. griseolus ATCC11796 were cultured in sporulation broth for 18 hours at 30° C. with shaking. Each culture was then resuspended in 25 ml fresh sporulation broth and 3.0 mg herbicide added. Each culture was reincubated for 18 hours, then an aliquot of the medium was withdrawn and analyzed by HPLC. The percent conversion of herbicide was determined.

The next data set relates to S. lividans C37. Described as above. It counts as in vitro ADME, Streptomyces lividans. As to conditions: 3.0 mg herbicide in 25 ml broth; 18 hours. The procedure: as §5
The subject of data set [6] is S. lividans pCAO200SU1-FeS-B#9. The data set is described as above. Conditions: for Percent Conversion: 3.0 mg herbicide in 25 ml broth, 18 hours; for metabolism by bacteria containing constitutively expressed P450SU1: summary of Table 29. The data set is classed as in vitro ADME, Streptomyces lividans. The method, then:
as §5

For the compound `COC(=O)c1ccccc1S(=O)(=O)NC(=O)Nc1nc(C)nc(OC)n1` [compound 10006, N-[(4-methoxy-6-methyl-1,3,5-triazinyl)aminocarbonyl]-2-methoxycarbonylbenzenesulfonamide], the concentration in supernatant stood at 369 µM in data set [1] (2 h); 357 µM in [1] (4 h); 355 µM in data set [1] (6 h); 404 µM in data set [2] (2 h); 394 µM in data set [2] (4 h); 405 µM in data set [2] (6 h). Also, the concentration in supernatant was determined as 362 µM in data set [3]; 376 µM in [4] (2 h); 384 µM in data set [4] (4 h); 386 µM in data set [4] (6 h); 381 µM in the data set on S. lividans pCAO200 (2 h); 377 µM with S. lividans pCAO200 (4 h). Further, the concentration in supernatant with S. lividans pCAO200 (6 h) came out at 375 µM; in data set [5] (2 h), 326 µM; in [5] (4 h) it was 267 µM; in data set [5] (6 h) it was 232 µM.
On to `CCc1cnc(C2=NC(C)(C(C)C)C(=O)N2)c(C(=O)O)c1` (stereo not drawn) [compound 10034], for which the figures for the “Percent Conversion” value (in the data set on S. griseolus ATCC11796; with S. lividans C37; in [6]) were 13%, 10% and 69%, respectively. Besides, in data set [6], the “metabolism by bacteria containing constitutively expressed P450SU1” value is on record as “metabolized”.
`CC(C)C1(C)N=C(c2nc3ccccc3cc2C(=O)O)NC1=O` (stereo not drawn) [compound 10035, 2-[4,5-dihydro-4-methyl-4-(1-methylethyl)-5-oxo-1H-imidazol-2-yl]-3-quinolinecarboxylic acid]: the “Percent Conversion” value in the data set on S. griseolus ATCC11796 is 21%; with S. lividans C37 it was 22%; in data set [6] it was 96%. In addition, the “metabolism by bacteria containing constitutively expressed P450SU1” value in [6] was “metabolized”.
